Experimental data: US20220016115A1, “USP19 INHIBITORS FOR USE IN THERAPY” (ALMAC DISCOVERY LIMITED, priority 2018, published 2022)
Entries after “also recorded” stand apart in the source; their conditions may differ.

Key:
male C57bl/6 mice = experiment: Sciatic nerve denervation muscle wasting model; assay type: in vivo; settings: 75 mg/kg IP twice daily, vs vehicle
Procedure: To induce muscle wasting, a 1 cm segment of the sciatic nerve in the thigh was removed from mice (male C57bl/6 mice at 8-10 weeks of age; n=10 per group) under isoflurane anaesthesia and analgesia with carprofen. A sham operation was carried out in the opposite leg as a control.
Mice were randomised into Vehicle or Test groups, with all animals weighed to ensure a similar mean weight in each group. A USP19 inhibitory compound (ADC-141, which is 1-(((S)-7-((R)-3-Cyclohexyl-2-methylpropanoyl)-10-hydroxy-7-azaspiro[4.5]decan-10-yl)methyl)-4-phenyl-5-(piperazine-1-carbonyl)pyridin-2(1H)-one, corresponding to exemplary compound 212 provided herein) at 75 mg/kg or Vehicle was administered IP twice daily starting from the evening post-operation.
Mice were sacrificed 14 days later. Fat pads, liver, gastrocnemius and tibialis anterior muscles were harvested. Tissue mass were measured in both groups.

USP19 = molecular target: T1, USP19 (Homo sapiens, UniProt O94966); experiment: Cell target engagement, breast cancer cell line; assay type: cell-based
T1 sequence (O94966 1-1318): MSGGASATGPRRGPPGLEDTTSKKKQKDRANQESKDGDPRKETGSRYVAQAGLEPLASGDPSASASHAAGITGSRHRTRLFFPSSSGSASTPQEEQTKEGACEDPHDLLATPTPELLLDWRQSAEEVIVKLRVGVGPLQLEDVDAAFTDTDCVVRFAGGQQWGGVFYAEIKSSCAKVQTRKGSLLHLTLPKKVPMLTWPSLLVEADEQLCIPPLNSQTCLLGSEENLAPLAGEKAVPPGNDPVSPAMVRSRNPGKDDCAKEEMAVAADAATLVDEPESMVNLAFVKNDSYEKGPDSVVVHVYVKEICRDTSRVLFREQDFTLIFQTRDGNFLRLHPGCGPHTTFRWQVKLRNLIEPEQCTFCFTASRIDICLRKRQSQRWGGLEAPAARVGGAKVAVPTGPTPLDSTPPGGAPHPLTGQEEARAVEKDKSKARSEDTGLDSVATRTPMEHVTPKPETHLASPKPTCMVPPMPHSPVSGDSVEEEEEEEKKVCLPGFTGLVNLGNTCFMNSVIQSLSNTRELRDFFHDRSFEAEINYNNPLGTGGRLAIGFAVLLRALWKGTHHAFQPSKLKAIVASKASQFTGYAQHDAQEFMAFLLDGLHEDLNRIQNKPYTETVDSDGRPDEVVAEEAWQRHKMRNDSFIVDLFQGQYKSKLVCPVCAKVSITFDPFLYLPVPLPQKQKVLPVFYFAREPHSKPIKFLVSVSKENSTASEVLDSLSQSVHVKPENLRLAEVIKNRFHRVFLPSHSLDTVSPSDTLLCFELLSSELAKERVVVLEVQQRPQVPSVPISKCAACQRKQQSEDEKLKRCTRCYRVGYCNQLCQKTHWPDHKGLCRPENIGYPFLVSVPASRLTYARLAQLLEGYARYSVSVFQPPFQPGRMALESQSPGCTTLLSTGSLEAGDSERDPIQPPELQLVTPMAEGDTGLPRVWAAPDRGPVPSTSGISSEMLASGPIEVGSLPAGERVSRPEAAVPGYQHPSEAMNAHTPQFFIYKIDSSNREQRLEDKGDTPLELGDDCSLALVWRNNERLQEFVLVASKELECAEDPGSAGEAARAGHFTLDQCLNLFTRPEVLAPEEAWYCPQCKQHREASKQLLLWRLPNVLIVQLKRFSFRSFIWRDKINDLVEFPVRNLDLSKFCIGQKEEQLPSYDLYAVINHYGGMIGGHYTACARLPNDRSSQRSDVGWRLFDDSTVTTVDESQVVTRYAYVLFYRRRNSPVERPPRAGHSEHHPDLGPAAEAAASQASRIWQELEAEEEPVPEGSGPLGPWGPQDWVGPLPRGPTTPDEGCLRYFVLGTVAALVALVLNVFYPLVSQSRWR
Procedure: Cells from a breast cancer cell line, a neuroblastoma cell line and a mouse skeletal muscle cell line were treated with a USP19 inhibitor compound (ADC-141, corresponding to Example 212 provided herein) for 2 hrs, lysed (lysis buffer: 50 mM Tris pH 7.4; 150 mM NaCl; 5 mM MgCl2; 0.5 mM EDTA; 0.5% NP40; 10% Glycerol; 2 mM DTT) and Ubiquitin-propargylamine (Ub-PA; UbiQ) or Ubiquitin-vinyl methyl ester (Ub-VME; Almac Sciences Scotland Limited) was then added. Samples were analysed by western blotting probing for USP19 (EC50 determined by densitometry).

With `C[C@H](CC1CCCCC1)C(=O)N1CC[C@@](O)(Cn2cc(C(=O)N3CCNCC3)c(-c3ccccc3)cc2=O)C2(CCCC2)C1` [ADC-141, 1-(((S)-7-((R)-3-Cyclohexyl-2-methylpropanoyl)-10-hydroxy-7-azaspiro[4.5]decan-10-yl)methyl)-4-phenyl-5-(piperazine-1-carbonyl)pyridin-2(1H)-one] the liver mass (male C57bl/6 mice; 2 weeks) was “increase in liver mass”, the “mass of the epididymal fat pad” value (male C57bl/6 mice; 2 weeks) was “significant reduction in fat mass; also recorded: significantly smaller fat pads” and the “loss of muscle mass in the tibialis anterior muscle” value (male C57bl/6 mice; denervated limb, 14 days) was “significantly lower loss of muscle mass”. The “muscle wasting in the gastrocnemius muscle” value (male C57bl/6 mice; denervated limb, 14 days) was “reduced in the gastrocnemius muscle (FIG. 2), though the trend did not reach significance”, the cell permeability (USP19) was “good cell permeability” and the “EC50 (USP19 target engagement, densitometry)” value (USP19; 2 hrs treatment, Ub-PA or Ub-VME probe, western blot) was “low nanomolar”.
